The text below walks through data of patent US20260015358A1, “BICYCLIC DERIVATIVES, COMPOSITIONS AND USES THEREOF” (Danatlas Pharmaceuticals Co., Ltd., priority 2023, published 2026).

SMILES strings stand for the structures.

For the assay, the target named is WRN [UniPro: Q14191 (WRN_HUMAN), N500-C946] (Homo sapiens (Human), UniProt Q14191). Kind of assay: WRN unwinding assay (FORKF DNA, fluorescence). The format is biochemical. As to conditions: Table 14. As to the method:
WRN unwinding assay was initiated to evaluate potential inhibitory effect of compounds for WEN helicase activity. WRN [UniPro: Q14191 (WRN_HUMAN), N500-C946] was expressed and purified in insect system and stored at −80° C. in aliquots. […] Compounds dissolved in DMSO (Sigma, D8418) were plated into a 96-well intermediate plate (BioFil, VWP-032-096) for 3-fold serial titration for 10 points using DMSO, and well-to-well transfer the titrated compounds into another 96-well intermediate plate including assay buffer in advance. Shake the 96-well intermediate plate at 600 rpm for 10 min. to fully mix. Specifically, a 3× working mixture of WRN was diluted to a concentration of 60 nM in assay buffer. […] After centrifuging at 1000 rpm and shaking at 500 rpm, the assay plate was pre-incubated for 30 min. Then, […] 3×FORKF DNA and ATP working mixture was dispensed into assay plate. Plate was sealed, centrifuged and incubated for an additional 40 min. at 25° C. […] Each concentration of compound was tested in duplicates in the assay plate. Average fluorescence signal of high control (Wells with 1% DMSO) was calculated as High Control (HC). Average fluorescence signal of low control (Wells with no WRN protein) was calculated as Low control (LC).
IC50 values were determined by fitting the data to the standard 4 parameters with Hill Slope using GraphPad Prism software.

Sequence of WRN [UniPro: Q14191 (WRN_HUMAN), N500-C946] (Q14191 500-946): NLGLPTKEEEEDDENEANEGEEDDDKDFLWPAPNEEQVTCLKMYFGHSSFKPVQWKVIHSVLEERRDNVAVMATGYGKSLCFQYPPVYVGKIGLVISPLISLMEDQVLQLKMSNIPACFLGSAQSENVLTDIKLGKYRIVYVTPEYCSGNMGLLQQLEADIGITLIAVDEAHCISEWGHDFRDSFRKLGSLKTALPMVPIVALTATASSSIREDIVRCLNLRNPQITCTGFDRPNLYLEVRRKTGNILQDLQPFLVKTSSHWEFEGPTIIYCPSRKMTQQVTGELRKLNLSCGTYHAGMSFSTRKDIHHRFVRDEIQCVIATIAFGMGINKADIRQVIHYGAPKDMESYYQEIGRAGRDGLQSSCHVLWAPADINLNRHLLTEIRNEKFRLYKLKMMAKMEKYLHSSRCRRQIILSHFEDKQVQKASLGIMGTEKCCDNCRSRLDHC

Consider `CCc1c(N2CC3CN(C(=O)CNC(=O)c4ccccc4F)CC3C2)c(=O)n2nc(C3=CCOCC3)nc2n1CC(=O)Nc1ccc(C(F)(F)F)cc1Cl` (centres unmarked) [Example 140, N-(2-(5-(4-(2-((2-Chloro-4-(trifluoromethyl)phenyl)amino)-2-oxoethyl)-2-(3,6-di hydro-2H-pyran-4-yl)-5-ethyl-7-oxo-4,7-dihydro-[1,2,4]triazolo[1,5-a]pyrimidin-6-yl)hexahydropyrrolo[3,4-c]pyrrol-2(1H)-yl)-2-oxoethyl)-2-fluorobenzamide], for which the IC50 was over 1000 nM.
Regarding `O=C(Cn1c(O)c(N2CCN(C(=O)CNC(=O)c3ccccc3)CC2)c(=O)n2nc(C3=CCOCC3)nc12)Nc1ccc(C(F)(F)F)cc1Cl` [Example 142, N-(2-(4-(4-(2-((2-Chloro-4-(trifluoromethyl)phenyl)amino)-2-oxoethyl)-2-(3,6-dihydro-2H-pyran-4-yl)-5-hydroxy-7-oxo-4,7-dihydro-[1,2,4]triazolo[1,5-a]pyrimidin-6-yl)piperazin-1-yl)-2-oxoethyl)benzamide], the half-maximal inhibitory concentration (IC50) lay in the range of 100 to 1000 nM.
`CCc1c(N2CCN(C(=O)CNC(=O)c3ccccc3F)CC2)c(=O)n2nc(C3=CCOCC3)nc2n1CC(=O)Nc1ccc(S(F)(F)(F)(F)F)cc1C` [Example 145, N-(2-(4-(2-(3,6-Dihydro-2H-pyran-4-yl)-5-ethyl-4-(2-((2-methyl-4-(pentafluoro-16-sulfanyl)phenyl)amino)-2-oxoethyl)-7-oxo-4,7-dihydro-[1,2,4]triazolo[1,5-a]pyrimidin-6-yl)piperazin-1-yl)-2-oxoethyl)-2-fluorobenzamide] yielded an IC50 of 100 to 1000 nM.
With `CCc1c(N2CCN(C(=O)CNC(=O)c3ccccc3F)CC2)c(=O)n2nc(C3=CCOCC3)nc2n1CC(=O)Nc1sc(C)cc1Cl` [Example 151, N-(2-(4-(4-(2-((3-chloro-5-methylthiophen-2-yl)amino)-2-oxoethyl)-2-(3,6-dihydro-2H-pyran-4-yl)-5-ethyl-7-oxo-4,7-dihydro-[1,2,4]triazolo[1,5-a]pyrimidin-6-yl)piperazin-1-yl)-2-oxoethyl)-2-fluorobenzamide] the figure was 100 to 1000 nM.
With `CCc1c(N2CCN(C(=O)CNC(=O)c3ccccc3F)CC2)c(=O)n2nc(C3=CCOCC3)nc2n1CC(=O)Nc1nnc(C(F)(F)F)s1` [Example 155, N-(2-(4-(2-(3,6-Dihydro-2H-pyran-4-yl)-5-ethyl-7-oxo-4-(2-oxo-2-((5-(trifluoromethyl)-1,3,4-thiadiazol-2-yl)amino)ethyl)-4,7-dihydro-[1,2,4]triazolo[1,5-a]pyrimidin-6-yl)piperazin-1-yl)-2-oxoethyl)-2-fluorobenzamide] the figure was over 1000 nM; with `CCc1c(N2CCN(C(=O)CNC(=O)c3ccccc3F)CC2)c(=O)n2nc(C3=CCOCC3)nc2n1CC(=O)Nc1nnc(C2CC2)s1` [Example 156, N-(2-(4-(4-(2-((5-Cyclopropyl-1,3,4-thiadiazol-2-yl)amino)-2-oxoethyl)-2-(3,6-dihydro-2H-pyran-4-yl)-5-ethyl-7-oxo-4,7-dihydro-[1,2,4]triazolo[1,5-a]pyrimidin-6-yl)piperazin-1-yl)-2-oxoethyl)-2-fluorobenzamide], over 1000 nM; with `CCc1c(N2CCN(C(=O)CNC(=O)c3ccccc3F)CC2)c(=O)n2nc(C3=CCOCC3)nc2n1CC(=O)Nc1ncc(C(F)(F)F)s1` [Example 158, N-(2-(4-(2-(3,6-Dihydro-2H-pyran-4-yl)-5-ethyl-7-oxo-4-(2-oxo-2-((5-(trifluoromethyl)thiazol-2-yl)amino)ethyl)-4,7-dihydro-[1,2,4]triazolo[1,5-a]pyrimidin-6-yl)piperazin-1-yl)-2-oxoethyl)-2-fluorobenzamide], 100 to 1000 nM.
As to `CCc1c(N2CCN(C(=O)CNC(=O)c3ccccc3F)CC2)c(=O)n2nc(C3=CCOCC3)nc2n1CC(=O)Nc1nc(C)cs1` [Example 159, N-(2-(4-(2-(3,6-Dihydro-2H-pyran-4-yl)-5-ethyl-4-(2-((4-methylthiazol-2-yl)amino)-2-oxoethyl)-7-oxo-4,7-dihydro-[1,2,4]triazolo[1,5-a]pyrimidin-6-yl)piperazin-1-yl)-2-oxoethyl)-2-fluorobenzamide], the concentration for half-maximal inhibition (IC50) fell in the range of 100 to 1000 nM.
The compound `CCc1c(N2CCN(C(=O)CNC(=O)c3ccccc3F)CC2)c(=O)n2nc(C3=CCOCC3)nc2n1CC(=O)Nc1cc(C)no1` [Example 160, N-(2-(4-(2-(3,6-Dihydro-2H-pyran-4-yl)-5-ethyl-4-(2-((3-methylisoxazol-5-yl)amino)-2-oxoethyl)-7-oxo-4,7-dihydro-[1,2,4]triazolo[1,5-a]pyrimidin-6-yl)piperazin-1-yl)-2-oxoethyl)-2-fluorobenzamide] returned a half-maximal inhibitory concentration (IC50) of over 1000 nM.
`CCc1c(N2CCN(C(=O)CNC(=O)c3ccc(Cl)cc3)CC2)c(=O)n2nc(C3=CCOCC3)nc2n1CC(=O)Nc1ccc(C(F)(F)F)cc1Cl` [Example 164, 4-Chloro-N-(2-(4-(4-(2-((2-chloro-4-(trifluoromethyl)phenyl)amino)-2-oxoethyl)-2-(3,6-dihydro-2H-pyran-4-yl)-5-ethyl-7-oxo-4,7-dihydro-[1,2,4]triazolo[1,5-a]pyrimidin-6-yl)piperazin-1-yl)-2-oxoethyl)benzamide] had a half-inhibitory concentration (IC50) of 100 to 1000 nM.
The compound `CCc1c(N2CCN(C(=O)CNC(=O)OC(C)C)CC2)c(=O)n2nc(C3=CCOCC3)nc2n1CC(=O)Nc1ccc(C(F)(F)F)cc1Cl` [Example 172, Isopropyl (2-(4-(4-(2-((2-chloro-4-(trifluoromethyl)phenyl)amino)-2-oxoethyl)-2-(3,6-dihydro-2H-pyran-4-yl)-5-ethyl-7-oxo-4,7-dihydro-[1,2,4]triazolo[1,5-a]pyrimidin-6-yl)piperazin-1-yl)-2-oxoethyl)carbamate] came in with an IC50 of 100 to 1000 nM.
With `CCc1c(N2CCN(C(=O)CNC(=O)c3cccc(Cl)c3)CC2)c(=O)n2nc(C3=CCOCC3)nc2n1CC(=O)Nc1ccc(C(F)(F)F)cc1Cl` [Example 175, 3-Chloro-N-(2-(4-(4-(2-((2-chloro-4-(trifluoromethyl)phenyl)amino)-2-oxoethyl)-2-(3,6-dihydro-2H-pyran-4-yl)-5-ethyl-7-oxo-4,7-dihydro-[1,2,4]triazolo[1,5-a]pyrimidin-6-yl)piperazin-1-yl)-2-oxoethyl)benzamide] the figure was 100 to 1000 nM; with `CCc1c(N2CCN(C(=O)CNC(=O)c3ccccc3)CC2)c(=O)n2nc(Br)nc2n1CC(=O)Nc1ccc(C(F)(F)F)cc1Cl` [Example 230, N-(2-(4-(2-Bromo-4-(2-((2-chloro-4-(trifluoromethyl)phenyl)amino)-2-oxoethyl)-5-ethyl-7-oxo-4,7-dihydro-[1,2,4]triazolo[1,5-a]pyrimidin-6-yl)piperazin-1-yl)-2-oxoethyl)benzamide], 100 to 1000 nM; with `CCc1c(N2CCN(C(=O)CNC(=O)c3ccccc3F)CC2)c(=O)n2nc(OCCOC)nc2n1CC(=O)Nc1ccc(C(F)(F)F)cc1Cl` [Example 240, N-(2-(4-(4-(2-((2-Chloro-4-(trifluoromethyl)phenyl)amino)-2-oxoethyl)-5-ethyl-2-(2-methoxyethoxy)-7-oxo-4,7-dihydro-[1,2,4]triazolo[1,5-a]pyrimidin-6-yl)piperazin-1-yl)-2-oxoethyl)-2-fluorobenzamide], over 1000 nM.

A word on the IC50: it is the concentration needed to halve the response being measured. Low values mean higher potency, high ones lower potency.
